Experimental data taken from patent publication US20110162116A1, “Method For Growing Plants” (priority 2008, published 2011).

System: Cotton
Assay: Total dark respiration and SHAM-sensitive AOX by phase shift fluorescence measurement, cotton leaf sections
Format: in vivo, Gossypium spp.
Excerpt: Ozone control. Ozone generators (model OP-35-3P, Grupo Interozone, Brazil) were coupled to ozone monitors (model 202, 2B Technologies, Inc. USA; dynamic range of 1.5 ppbv to 100 ppmv of ozone; precision 1.5 ppbv or 2% of the reading) using a ozone monitor—generator interface (Engineering dep. Crops Advance Brazil). […] This was used as the upper limit for phytotron number one. Phytotron number two was set at 30 ppbv average ozone. Phytotron number three was set at 60 ppbv average ozone. Ozone levels of phytotron number two and three were permanently measured at 10 second intervals and averaged per minute. Each ozone monitor fed averaged values over an analog output to an ozone monitor—ozone generator interface. Hysteresis was set at +/−5 ppbv. Ozone levels were monitored close to the inlet of the two internal circulation ventilators. The ozone generators were adapted to accept an external digital signal from the interface.
Respiration of plant material was tested as follows: Partial oxygen pressure drops due to oxygen consumption as result of dark respiration were measured using phase shift fluorescence measurement. For this, a NeoFox™ Phase Measurement System was used (Fluorometer Bench version using a QBIF600-VIS-NIR laboratory-grade bifurcated optical fiber with FOXY-R-8 cm overcoated fluorescence oxygen needle sensor, Ocean Optics Inc. USA).
Fluorescence phase shift was expressed as Tau in microseconds (μs) and has an inverse and linear relation with the partial oxygen pressure.
Salicylhydroxamic acid (SHAM) (99%, Sigma-Aldrich Brasil Ltda. São Paulo, Brazil) was used as an AOX inhibitor. The soluble sodium salicylhydroxamate salt was prepared by titrating SHAM with 0.1 M sodium hydroxide until neural pH. A stock solution ([…]) was prepared containing 300 ml/L ethanol from initial dissolving SHAM (same abbreviation is used for the salicylhydroxamate salt). From the stock solution a 20 mmol/L salicylhydroxamate final test solution was prepared by taking 12.3 ml stock solution and completing till 100 ml with a phosphate buffer solution (pH 7). The final SHAM test solution thus contained 3.7% residual ethanol. For proper control, the comparative test solution was also provided with 3.7 ml of ethanol per 100 ml of phosphate buffer solution (pH 7). To both solutions two drops of wetting agent (Silwet L-77 AG, GE Silicones Inc. USA) were added per 25 ml of test solution.
Plant material collected was always the first fully grown leaf counting from the apical point downwards or outwards (e.g. for monocotyls). […] Per test, four leafs from four different plants were sampled. Cotton leafs were cut in half along the mid nerve. Using a clipper, 16 leaf sections of equal surface area of 400.9 mm2 each were cut, one from each base half and one from each top half part giving 4 sections per leaf and 16 sections per test. The leaf sections were distributed equally over two sub samples, one with and one without salicylhydroxamate. Using a chirurgical blade, all sections were given 7 parallel cuts (through and through) at approximately 2.5 mm apart over almost the full length of the section to guarantee lateral infiltration of the test solutions and gas exchange.
Within 10 minutes of plant sampling the sections were cut, initial subsample weight was registered using a high precision laboratory scale and the subsamples were placed in their solutions with and without salicylhydroxamate for 60 minutes in the dark, to guarantee dark adaptation.
Each sample contained 4 leaves, 4 sections per leaf providing 16 sections, 8 per subsample. In 1 subsample of 8 sections AOX was inhibited, the other subsample served as control. Thereafter each subsample material was tissue dried and stacked using filter paper sections cut with the same clipper to separate individual leaf sections. Each subsample consisted of 9 filter sections and 8 leaf sections. […]

[1] = plants grown in 0 ppvb O3, transferred to 60 ppvb O3 and transferred back to 0 ppvb O3
[2] = plants grown in 0 ppvb O3 and transferred to 30 ppvb O3
[3] = plants grown in 0 ppvb O3 and transferred to 60 ppvb O3
[4] = plants grown in 60 ppvb O3 and transferred to 0 ppvb O3

O=[O+][O-] [ozone]
time for AOX respiration rate to fully return to base level when the oxidative stress is reduced (cotton, after exposure to higher ozone levels than in ontogenic phase): ≤ 3 days | AOX respiration after return to the 0 ppbv ozone ambient (in words) (ontogenic phase in 0 ppbv, time in 60 ppbv ozone ambient, returned to 0 ppbv): returned fully to its initial level | AOX component [1]: 2.95 arb units | TDR excl AOX dTau/t without SHAM [1]: 8.87E−06 μs/s | TDR incl AOX dTau/t with SHAM [1]: 1.18E−05 μs/s | AOX component [2]: 3.26 arb units | TDR excl AOX dTau/t without SHAM [2]: 7.51E−06 μs/s | TDR incl AOX dTau/t with SHAM [2]: 1.08E−05 μs/s | AOX component [3]: 3.77 arb units | TDR excl AOX dTau/t without SHAM [3]: 5.75E−06 μs/s | TDR incl AOX dTau/t with SHAM [3]: 9.52E−06 μs/s | AOX component (plants grown in 30 ppvb O3): 2.97 arb units | TDR excl AOX dTau/t without SHAM (plants grown in 30 ppvb O3): 6.96E−06 μs/s | TDR incl AOX dTau/t with SHAM (plants grown in 30 ppvb O3): 9.93E−06 μs/s | AOX component (plants grown in 60 ppvb O3): 3.33 arb units | TDR excl AOX dTau/t without SHAM (plants grown in 60 ppvb O3): 6.03E−06 μs/s | TDR incl AOX dTau/t with SHAM (plants grown in 60 ppvb O3): 9.36E−06 μs/s | AOX component [4]: 3.97 arb units | TDR excl AOX dTau/t without SHAM [4]: 7.13E−06 μs/s | TDR incl AOX dTau/t with SHAM [4]: 1.11E−05 μs/s | AOX respiration during stay in the zero ozone level ambient (in words) (plants grown up in 60 ppbv ozone, placed in zero ozone ambient): did not lower their AOX respiration
